From ChEMBL document CHEMBL1144516, “Synthesis and biological activities of analogs of D-glucosyl-l-tyrosine, a humoral factor that stimulates transcription of the acyl-CoA binding protein in the pheromone gland of the Silkmoth, Bombyx mori” (Bioorg Med Chem, 2007)
Calls of active or inactive are those of the source. No cut-off for these calls is given here.

These compounds were tested on Bombyx mori (assay: Stimulation of transcription of acyl-CoA binding protein in pheromone gland of Silkmoth P50 at 0.2 mg after 18 hrs).
Format: functional, organism-based

| Activity | Compound |
| --- | --- |
| inactive | N[C@@H](Cc1ccc(O[C@H]2O[C@@H](CO)[C@H](O)[C@@H](O)[C@@H]2O)cc1)C(=O)O |
| inactive | N[C@H](Cc1ccc(OC2O[C@H](CO)[C@@H](O)[C@H](O)[C@H]2O)cc1)C(=O)O (stereo not given in full) |
| inactive | N[C@H](Cc1ccc(O[C@H]2O[C@@H](CO)[C@H](O)[C@@H](O)[C@@H]2O)cc1)C(=O)O |
| inactive | N[C@H](Cc1ccc(O[C@@H]2O[C@H](CO)[C@H](O)[C@H](O)[C@H]2O)cc1)C(=O)O |
| Active | N[C@@H](Cc1ccc(O[C@@H]2O[C@H](CO)[C@H](O)[C@H](O)[C@H]2O)cc1)C(=O)O |
